What was measured:
[1] = tested on: NOS of semipurified enzyme preparation or activated macrophage cytosol; conditions: 30 min. incubation with 10 μM DPI at 37 °C; cited from earlier work
[2] = target: superoxide dismutase (SOD); test: Superoxide dismutase (SOD) inhibitory assay (SOD assay kit-WST); format: biochemical; conditions: duplicate; 1-50 µM; 25 °C, 30 min; read-out: IC50 SOD inhibition
Method: The antioxidant activity of the compounds 3a, 3c, 3f, 3i, 3l, 3n and 3p against superoxide radicals was assessed via enzymatic assay in vitro using the SOD assay kit-WST according to the manufacturer’s instructions (Sigma-Aldrich®). The reaction mixtures in the SOD kit were combined with 20 μL of working solution of the samples in a 96-well plate. Plates were gently shaken and then incubated at 25 °C for 30 min. The reference positive control, diphenyleneiodonium (DPI), and the compounds were tested at 01, 5, 10, 25 and 50 µM in duplicates. The inhibition activity of SOD on the reaction of […] generated the superoxide with a tetrazolium salt, which was then determined by measuring the absorbance of the mixtures at a wavelength of 450 nm using an Elisa plate reader (Varioskan Flash, ThermoFisher Scientific, Vantaa, Finland). The SOD activity values obtained used to calculate the percentage of inhibition. % SOD activity=ODx− ODy/ODx ×100% where ODx is the absorbance of the blank (untreated SOD) and ODy is the absorbance of the sample (treated SOD). All tests were performed in duplicate.

[3] = tested on: nitric oxide synthase (NOS); test: Kinetic study on inhibitory activity of NOS; format: biochemical; conditions: seven concentrations 1-10.0 μM; Figure 3; read-out: IC50 NOS inhibition (kinetic study)
Method: (§1) A nitric oxide synthase (NOS) assay was performed following the procedure recommended by the manufacturer as outlined in the screening kit (Catalogue No. EINO-100; EnzyChrom). Various concentrations (1, 2.5, 4.0, 5.5, 7.0, 8.5 and 10.0 µM) of the compounds 3i and the reference standard, DPI, were prepared. The enzyme solution (12.5 U/mL NOS, 10 uL), assay buffer (25 µL) and test samples (5 µL) were incubated at room temperature for 15 min. After pre-incubation, 10 µL of reaction mix was added and incubated at 37 °C for 60 min. A 200 µL quantity of NO detection reagent was added, the detection reaction was run at 37 °C for 60 min, and absorbance was determined at a wavelength of 540 nm using an Elisa plate reader (Varioskan Flash, ThermoFisher Scientific, Vantaa, Finland). The average of three readings was used to calculate the NOS percentage inhibition using the formula in Section 2.6.3

[4] = tested on: lung cancer (A549) cell line; test: MTT cytotoxicity assay, A549; conditions: for Cell viability percentage, A549: Table S3; for IC50: Homo sapiens, A549, read-out: IC50 A549
Method: (§2) Cells were cultured in sterile Dulbecco’s Minimal Essential Medium (DMEM, Gibco) supplemented with 10% fetal bovine serum (FBS) and 1% penicillin-streptomycin solution. […] Cell counting was carried out using a handheld automated cell counter (Scapter 3.0™, Merck, Burlington, MA, USA) and seeded (1 × 10^4 cells/well) into a 96-well plate. After 24 h, the cells were treated with different concentrations (1, 5, 10, 25 and 50 µM) of the test compounds and reference standards prepared in DMEM. The MTT solution (20 μL) prepared in PBS (5 mg/mL) was added to all the wells, and the plates were incubated for 4 h, followed by 1 h incubation with 100 µL of dimethyl sulfoxide (DMSO) to dissolve the formazan crystals. Untreated cells and 5% DMSO were included in the experiment as negative controls. All experiments were performed in triplicate. The plates were read at 570 nm at a reference wavelength of 630 nm using an ELISA plate reader (Varioskan Flash, ThermoFisher Scientific, Vantaa, Finland). The percentage of cell viability was calculated using the following formula, Cell viability %=At/Ab×100 where At represents the absorbance value of test compound and Ab the absorbance value of the blank. […] The data were expressed as means ± SD.

[5] = MTT cytotoxicity assay, HEK293-T; conditions: human, HEK293-T cells
Method: as §2

[6] = tested on: human embryonic kidney (HEK293-T) cell line; test: MTT cytotoxicity assay, HEK293-T; conditions: Homo sapiens, HEK-293T, read-out: IC50 Hek293-T
Method: as §2

[7] = NO free radical scavenging assay (sodium nitroprusside/Griess); conditions: mean ± SD; sodium nitroprusside, Griess reagent, 550 nm
Method: The assay was conducted following the method described in our previous study. A mixture of 10 mM sodium nitroprusside (20 µL), phosphate buffer (5 µL) and the test compound (5 µL) were incubated at 25 °C in a 96-well plate for 2.5 h. After incubation, 20 µL of Griess reagent (1.00 g of sulfanilic acid + 0.10 g naphthylethylene diamine dihydrochloride) was added to the previous mixture and allowed to stand for 30 min. […] Each experiment was performed in triplicate, and the average was taken. The average obtained from the absorbance readings was used to calculate the IC50 values in GraphPad prism from nonlinear regression dose–response curves.

[8] = target: T1, α-Glucosidase type 1 from baker's yeast (Saccharomyces cerevisiae, UniProt P53341); test: biochemical; conditions: IC50 α-Glucosidase, mean ± SD, triplicate; tested at 1, 5, 10, 25, 50 µM
T1 construct: purchased Sigma Aldrich (Pty) Ltd. G5003
T1 sequence (P53341 whole entry): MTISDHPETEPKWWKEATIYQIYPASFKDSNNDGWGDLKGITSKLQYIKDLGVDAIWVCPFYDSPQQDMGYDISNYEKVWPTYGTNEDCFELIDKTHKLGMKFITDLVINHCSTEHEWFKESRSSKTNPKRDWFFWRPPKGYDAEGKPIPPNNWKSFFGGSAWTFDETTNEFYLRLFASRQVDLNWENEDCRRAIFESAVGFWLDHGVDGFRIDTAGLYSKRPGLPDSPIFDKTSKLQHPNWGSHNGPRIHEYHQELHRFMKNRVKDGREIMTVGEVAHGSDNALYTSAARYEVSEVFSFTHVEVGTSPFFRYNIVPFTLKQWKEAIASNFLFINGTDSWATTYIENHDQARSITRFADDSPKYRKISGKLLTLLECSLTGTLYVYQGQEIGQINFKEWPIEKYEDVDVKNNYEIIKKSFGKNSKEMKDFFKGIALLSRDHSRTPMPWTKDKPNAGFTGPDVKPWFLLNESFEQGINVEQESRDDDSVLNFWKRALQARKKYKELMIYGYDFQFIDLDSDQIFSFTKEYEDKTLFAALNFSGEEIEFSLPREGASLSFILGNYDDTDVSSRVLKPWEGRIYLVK
Method: The assay was conducted in triplicate following a method described in our previous study. […] After pre-incubation, 17 µL of 2 mM PNP-G was added. The absorbances were recorded in a 96-well microplate at 400 nm using an Elisa plate reader (Varioskan Flash, ThermoFischer Scientific, Vantaa, Finland). The average values obtained from the readings were used to determine the IC50 and standard deviation values using a GraphPad Prism software (Version 8, GraphPad Software Inc., San Diego, CA, USA). The average values obtained from the absorbance readings were used to determine the IC50 and standard deviation values in GraphPad prism from nonlinear regression dose–response curves.

[9] = tested on: breast cancer (MCF-7) cell line; test: MTT cytotoxicity assay, MCF-7; conditions: for Cell viability percentage, MCF-7: Table S2; for IC50: Homo sapiens, MCF7, read-out: IC50 MCF-7
[10] = tested on: NO generated from nitric oxide synthase (NOS); test: Inhibitory activity against NO generated from NOS (EnzyChrom kit); format: biochemical; conditions: mean ± SD, 1-50 µM
Method: as §1, with “5, 10, 25” for “2.5, 4.0, 5.5, 7.0, 8.5”, “50” for “10.0”, “3a, 3c, 3f, 3i, 3l, 3n and 3p” for “3i”, “ascorbic acid,” for “DPI,”, “µL),” for “uL),”, “following formula: % Inhibition=1−ΔOD Test Compd/ΔOD No Inhibitor ×100%” for “formula in Section 2.6.3”
The IC50 values and standard deviation values were determined from nonlinear regression dose–response curve and compared with the results in GraphPad prism.

human α-amylase = target: T2, human α-amylase (Homo sapiens, UniProt P04746); test: α-amylase inhibitor screening kit assay; format: biochemical; conditions: mean ± SD, triplicate; tested at 1, 5, 10, 25, 50 µM
T2 construct: purchased Abcam ab283391
T2 sequence (P04746 16-511): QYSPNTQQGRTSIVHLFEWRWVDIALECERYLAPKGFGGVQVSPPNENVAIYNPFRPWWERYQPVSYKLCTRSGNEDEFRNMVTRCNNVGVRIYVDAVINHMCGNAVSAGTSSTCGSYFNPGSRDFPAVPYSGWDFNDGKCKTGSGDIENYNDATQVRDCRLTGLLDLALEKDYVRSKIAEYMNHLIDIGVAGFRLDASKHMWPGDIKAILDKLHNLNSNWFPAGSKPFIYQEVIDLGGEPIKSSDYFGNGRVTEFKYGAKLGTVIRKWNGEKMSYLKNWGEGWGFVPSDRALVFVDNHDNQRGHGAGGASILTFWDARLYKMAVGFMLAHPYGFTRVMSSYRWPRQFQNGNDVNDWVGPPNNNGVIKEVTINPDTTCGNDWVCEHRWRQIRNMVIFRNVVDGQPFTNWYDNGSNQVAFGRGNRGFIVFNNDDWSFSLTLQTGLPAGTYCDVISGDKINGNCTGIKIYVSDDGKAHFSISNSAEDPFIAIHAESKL
Method: The α-amylase assay was performed in triplicate, using a 96-well plate following the procedure recommended by the manufacturer as outlined in the α-amylase inhibitor Screening Kit (Catalogue No. ab283391; Abcam). […] The average values obtained from the absorbance readings were used to determine the IC50 and standard deviation values in GraphPad prism from nonlinear regression dose–response curves.

[11] = DPPH radical scavenging assay; conditions: mean ± SD; 45 min in the dark; 512 nm
Method: The DPPH radical scavenging assay was conducted following the procedure described in our previous study. The test compounds and ascorbic acid at various concentrations (ranging from 0 µM to 50 µM) in DMSO were mixed with a solution of DPPH (0.20 mM) in methanol and incubated in the dark for 45 min. Five absorbance readings were recorded at 512 nm using an Elisa plate reader (Varioskan Flash, ThermoFisher Scientific, Vantaa, Finland). The experiment was carried out in triplicate, and averaged values from the absorbance readings were used to determine the IC50 and standard deviation values in GraphPad prism from nonlinear regression dose–response curves.

c1ccc2c(c1)[I+]c1ccccc1-2 [DPI, diphenyleneiodonium chloride, reference compound]
NOS activity after incubation with inhibitor [1]: irreversibly inhibited
IC50 [2]: 0.71 ± 0.03 µM
IC50 [3]: 3 ± 0.007 µM

CC1=[N+]([O-])C(c2ccc(F)cc2)Nc2ccc(I)cc21 (stereo not drawn) [Compound 3f]
Cell viability percentage, A549 ([4]; Conc. 1 (µM per method)): 82,3715%
Cell viability percentage, A549 ([4]; Conc. 5 (µM per method)): 71,9204%
Cell viability percentage, A549 ([4]; Conc. 10 (µM per method)): 61,143%
Cell viability percentage, A549 ([4]; Conc. 25 (µM per method)): 44,212%
Cell viability percentage, A549 ([4]; Conc. 50 (µM per method)): 32,7708%
IC50 [4]: 13.71 ± 0.11 µM
viability at 1 µM [5]: 72%
viability at 5 µM [5]: 55.2%
viability at 10 µM [5]: 47.8%
viability at 25 µM [5]: 36.7%
viability at 50 µM [5]: 14.7%
IC50 [6]: 22.32 ± 0.08 µM
IC50 [7]: 6.74 ± 0.002 µM
melting point: 180 to 182 °C
IC50 [8]: 9.27 ± 0.02 µM
Cell viability percentage, MCF-7 ([9]; Conc. 1 (µM per method)): 69,8879%
Cell viability percentage, MCF-7 ([9]; Conc. 5 (µM per method)): 62,4071%
Cell viability percentage, MCF-7 ([9]; Conc. 10 (µM per method)): 44,9558%
Cell viability percentage, MCF-7 ([9]; Conc. 25 (µM per method)): 32,649%
Cell viability percentage, MCF-7 ([9]; Conc. 50 (µM per method)): 23,6814%
IC50 [9]: 19.01 ± 0.04 µM
IC50 [10]: 4.7 ± 0.004 µM
IC50 [2]: 11.59 ± 0.08 µM
IC50 (human α-amylase): 0.64 ± 0.01 µM
IC50 [11]: 23.66 ± 0.009 µM

CC1=[N+]([O-])C(c2ccccc2)Nc2ccc(Br)cc21 (stereo not drawn) [Compound 3a]
Cell viability percentage, A549 ([4]; Conc. 1 (µM per method)): 66,8354%
Cell viability percentage, A549 ([4]; Conc. 5 (µM per method)): 57,3068%
Cell viability percentage, A549 ([4]; Conc. 10 (µM per method)): 54,0443%
Cell viability percentage, A549 ([4]; Conc. 25 (µM per method)): 41,1182%
Cell viability percentage, A549 ([4]; Conc. 50 (µM per method)): 30,5771%
IC50 [4]: 15.84 ± 0.07 µM
viability at 1 µM [5]: 69.4%
viability at 5 µM [5]: 63.4%
viability at 10 µM [5]: 57.8%
viability at 25 µM [5]: 55.1%
viability at 50 µM [5]: 19%
IC50 [6]: 40.18 ± 0.02 µM
IC50 [7]: 27.34 ± 0.04 µM
melting point: 158 to 160 °C
IC50 [8]: 1.08 ± 0.02 µM
Cell viability percentage, MCF-7 ([9]; Conc. 1 (µM per method)): 26,2641%
Cell viability percentage, MCF-7 ([9]; Conc. 5 (µM per method)): 26,1144%
Cell viability percentage, MCF-7 ([9]; Conc. 10 (µM per method)): 23,187%
Cell viability percentage, MCF-7 ([9]; Conc. 25 (µM per method)): 22,3387%
Cell viability percentage, MCF-7 ([9]; Conc. 50 (µM per method)): 19,6607%
IC50 [9]: 10.83 ± 0.09 µM
IC50 [10]: 5.24 ± 0.002 µM
IC50 [2]: 15 ± 10 µM
IC50 (human α-amylase): 5.33 ± 0.01 µM
IC50 [11]: 4.74 ± 0.027 µM

COc1ccc(C2Nc3c(Br)cc(I)cc3C(C)=[N+]2[O-])cc1 (stereo not drawn) [Compound 3p]
Cell viability percentage, A549 ([4]; Conc. 1 (µM per method)): 45,0433%
Cell viability percentage, A549 ([4]; Conc. 5 (µM per method)): 44,7771%
Cell viability percentage, A549 ([4]; Conc. 10 (µM per method)): 43,6627%
Cell viability percentage, A549 ([4]; Conc. 25 (µM per method)): 42,5649%
Cell viability percentage, A549 ([4]; Conc. 50 (µM per method)): 39,3879%
IC50 [4]: 12.24 ± 0.02 µM
viability at 1 µM [5]: 83.4%
viability at 5 µM [5]: 81.4%
viability at 10 µM [5]: 75.8%
viability at 25 µM [5]: 74.7%
viability at 50 µM [5]: 18.4%
IC50 [6]: 59.02 ± 0.02 µM
IC50 [7]: 5.46 ± 0.004 µM
melting point: 173 to 174 °C
IC50 [8]: 0.78 ± 0.05 µM
Cell viability percentage, MCF-7 ([9]; Conc. 1 (µM per method)): 72,4624%
Cell viability percentage, MCF-7 ([9]; Conc. 5 (µM per method)): 70,8112%
Cell viability percentage, MCF-7 ([9]; Conc. 10 (µM per method)): 59,2339%
Cell viability percentage, MCF-7 ([9]; Conc. 25 (µM per method)): 43,212%
Cell viability percentage, MCF-7 ([9]; Conc. 50 (µM per method)): 27,8817%
IC50 [9]: 13.47 ± 0.06 µM
IC50 [10]: 15.51 ± 0.009 µM
IC50 [2]: 8.3 ± 0.04 µM
IC50 (human α-amylase): 73.66 ± 0.02 µM
IC50 [11]: 60.03 ± 0.014 µM

Reference: article PMC10669220, “In Vitro α-Glucosidase and α-Amylase Inhibition, Cytotoxicity and Free Radical Scavenging Profiling of the 6-Halogeno and Mixed 6,8-Dihalogenated 2-Aryl-4-methyl-1,2-dihydroquinazoline 3-Oxides” (Antioxidants, 2023)
